# According to patent US20240398817A1, “CARDIO- AND RENOSAFE ANTIDIABETIC THERAPY” (priority 2018, published 2024):
# Tested on: patients with type 2 diabetes at high vascular risk
# Assay: Cardiovascular and Renal Outcomes Trial: linagliptin 5 mg once daily vs placebo on top of standard of care
# Type: in vivo
# Conditions: for Hazard ratio for hospitalised heart failure: vs placebo
# Procedure: The effect of linagliptin on cardiovascular risk in adult patients with type 2 diabetes mellitus and with increased CV risk evidenced by a history of established macrovascular or renal disease (e.g. as defined herein) was evaluated in a multi-center, multi-national, randomized, double-blind parallel group trial. The trial compared the risk of experiencing a major adverse cardiovascular event (MACE) between linagliptin and placebo when these were added to and used concomitantly with standard of care treatments for diabetes (HbA1c), cardiovascular risk factors and renal disease.
# The primary endpoint in this trial was the time to first occurrence of three point (3P) MACE. A major adverse cardiac event was defined as a cardiovascular death or a nonfatal myocardial infarction (MI) or a nonfatal stroke. The statistical analysis plan tested for non-inferiority for the occurrence of (3P) MACE. […] The secondary endpoint was a renal composite, defined as renal death or sustained end stage renal disease or sustained decrease of 40% or more in eGFR.
# Type 2 diabetes patient with insufficient glycemic control (naïve or pre-treated with any antidiabetic background medication, excluding treatment with GLP-1 receptor agonists, DPP-4inhibitors or SGLT-2 inhibitors if ≥consecutive 7 days, e.g. having HbA1c 6.5-10%), and high risk of cardiovascular events, e.g. defined by: • albuminuria (micro or macro) and previous macrovascular disease: e.g. defined according to Condition I as indicated below; • and/or • impaired renal function: e.g. as defined according to Condition II as indicated below;
# Background and aims: People with type 2 diabetes (T2D) are at increased risk for hospitalization for heart failure (hHF), particularly in the setting of concomitant cardiovascular (CV) and/or kidney disease. […] Here we present analyses of HF outcomes with the DPP-4 inhibitor linagliptin (LINA) vs. placebo (PBO) from a Cardiovascular and Renal Outcomes Trial assessing cardiovascular safety and renal microvascular outcome in patients with type 2 diabetes at high vascular risk, a large CV outcomes trial that enrolled participants with T2D at high risk for hHF due to concomitant CV and/or chronic kidney disease. Materials and methods: People with T2D and concomitant CV and/or kidney disease were randomized to receive LINA 5 mg, or PBO once daily (1:1), on top of standard of care. All hHF, CV outcomes, and deaths were centrally adjudicated, with individual and composite HF-related outcomes analyses comparing LINA vs. placebo. Investigator-reported HF-related adverse events, whether or not confirmed by adjudication, were also analyzed. A Cox proportional hazards model adjusting for region and history of HF was used for analyses of first events. Recurrent hHF events were analyzed using a negative binomial model.
# Methods: The present Cardiovascular and Renal Outcomes Trial randomized people with T2D and i) concomitant CV disease with UACR >30 mg/g or ii) prevalent CKD (i.e. GFR <45 ml/min/1.73m2 and/or UACR >200 mg/g) to receive the DPP-4 inhibitor linagliptin (5 mg) or placebo once daily in a double-blind fashion. The primary CV endpoint was 3P-MACE, with a key secondary kidney endpoint (adjudicated ESKD, renal death, or sustained ≥40% decrease in eGFR from baseline) and other renal outcomes (including albuminuria and eGFR slope) also assessed. Subgroups were assessed by baseline kidney function (eGFR ≥/<45 ml/min/1.73m2and eGFR ≥/<30, 45 or 60 ml/min/1.73m2).
# Adults with type 2 diabetes, HbA1c 6.5-10.0% inclusive, and high CV risk were eligible for inclusion. […] Macrovascular disease eligibility criteria was based on documented and confirmed history of myocardial infarction, coronary artery disease, stroke, carotid artery disease, or peripheral artery disease. Participants with end-stage kidney disease (ESKD), defined as eGFR <15 or requiring maintenance dialysis, were excluded.
# [1] = ACE inhibitors/angiotensin receptor blockers No
# [2] = ACE inhibitors/angiotensin receptor blockers Yes
# [3] = Albuminuria and previous macrovascular disease plus eGFR 45-75 with an UACR >200 mg/g
# [4] = Albuminuria and previous macrovascular disease plus renal impairment (eGFR 15-<45 with any UACR)
# [5] = Albuminuria and previous macrovascular disease without eGFR >45 mL/min/1.73 m2
# [6] = Angiotensin-converting enzyme inhibitors No
# [7] = Angiotensin-converting enzyme inhibitors Yes
# [8] = Angiotensin-converting enzyme inhibitors/angiotensin receptor blockers No
# [9] = Angiotensin-converting enzyme inhibitors/angiotensin receptor blockers Yes
# [10] = Blood pressure control SBP <140 mmHg
# [11] = Blood pressure control SBP <160 mmHg
# [12] = Blood pressure control SBP ≥140 mmHg
# [13] = Blood pressure control SBP ≥160 mmHg
smiles,measurement,setting,value
"CC#CCn1c(N2CCC[C@@H](N)C2)nc2c1c(=O)n(Cc1nc(C)c3ccccc3n1)c(=O)n2C [Linagliptin, 1-[(4-methyl-quinazolin-2-yl)methyl]-3-methyl-7-(2-butyn-1-yl)-8-(3-(R)-amino-piperidin-1-yl)-xanthine]",3-point MACE: hazard ratio vs placebo,[1],0.93
same,3-point MACE: patients with event/patients analyzed,[1],89/634
same,Key secondary kidney outcome: hazard ratio vs placebo,[1],0.96
same,Key secondary kidney outcome: patients with event/patients analyzed,[1],62/634
same,3-point MACE: hazard ratio vs placebo,[2],1.06
same,3-point MACE: patients with event/patients analyzed,[2],345/2860
same,Key secondary kidney outcome: hazard ratio vs placebo,[2],1.07
same,Key secondary kidney outcome: patients with event/patients analyzed,[2],265/2860
same,3-point MACE: hazard ratio vs placebo,Age <65 years,1.11
same,3-point MACE: patients with event/patients analyzed,Age <65 years,154/1467
same,Key secondary kidney outcome: hazard ratio vs placebo,Age <65 years,1.05
same,Key secondary kidney outcome: patients with event/patients analyzed,Age <65 years,180/1467
same,"Patients with event/patients analysed, hospitalised heart failure",Age <65 years,67/1467
same,Hazard ratio for hospitalised heart failure,Age <65 years,0.87
same,3-point MACE: hazard ratio vs placebo,Age ≥65 years,0.97
same,3-point MACE: patients with event/patients analyzed,Age ≥65 years,280/2027
same,Key secondary kidney outcome: hazard ratio vs placebo,Age ≥65 years,1.05
same,Key secondary kidney outcome: patients with event/patients analyzed,Age ≥65 years,147/2027
same,"Patients with event/patients analysed, hospitalised heart failure",Age ≥65 years,142/2027
same,Hazard ratio for hospitalised heart failure,Age ≥65 years,0.91
same,3-point MACE: hazard ratio vs placebo,[3],0.88
same,3-point MACE: patients with event/patients analyzed,[3],119/647
same,Key secondary kidney outcome: hazard ratio vs placebo,[3],0.99
same,Key secondary kidney outcome: patients with event/patients analyzed,[3],74/647
same,3-point MACE: hazard ratio vs placebo,[4],1.12
same,3-point MACE: patients with event/patients analyzed,[4],195/1462
same,Key secondary kidney outcome: hazard ratio vs placebo,[4],1.01
same,Key secondary kidney outcome: patients with event/patients analyzed,[4],215/1462
same,3-point MACE: hazard ratio vs placebo,[5],0.97
same,Key secondary kidney outcome: hazard ratio vs placebo,[5],1.22
same,3-point MACE: patients with event/patients analyzed,All patients,434/3493
same,Key secondary kidney outcome: patients with event/patients analyzed,All patients,327/3493
same,"Patients with event/patients analysed, hospitalised heart failure",All patients,209/3494
same,Hazard ratio for hospitalised heart failure,All patients,0.90
same,"Patients with event/patients analysed, hospitalised heart failure",[6],132/1920
same,Hazard ratio for hospitalised heart failure,[6],1.02
same,"Patients with event/patients analysed, hospitalised heart failure",[7],77/1574
same,Hazard ratio for hospitalised heart failure,[7],0.75
same,"Patients with event/patients analysed, hospitalised heart failure",[8],48/634
same,Hazard ratio for hospitalised heart failure,[8],0.84
same,"Patients with event/patients analysed, hospitalised heart failure",[9],161/2860
same,Hazard ratio for hospitalised heart failure,[9],0.92
same,3-point MACE: hazard ratio vs placebo,Antiplatelet drugs No,1.10
same,3-point MACE: patients with event/patients analyzed,Antiplatelet drugs No,125/1102
same,Key secondary kidney outcome: hazard ratio vs placebo,Antiplatelet drugs No,1.25
same,Key secondary kidney outcome: patients with event/patients analyzed,Antiplatelet drugs No,131/1102
same,"Patients with event/patients analysed, hospitalised heart failure",Antiplatelet drugs No,61/1102
same,Hazard ratio for hospitalised heart failure,Antiplatelet drugs No,0.94
same,3-point MACE: hazard ratio vs placebo,Antiplatelet drugs Yes,0.99
same,3-point MACE: patients with event/patients analyzed,Antiplatelet drugs Yes,309/2392
same,Key secondary kidney outcome: hazard ratio vs placebo,Antiplatelet drugs Yes,0.94
same,Key secondary kidney outcome: patients with event/patients analyzed,Antiplatelet drugs Yes,196/2392
same,"Patients with event/patients analysed, hospitalised heart failure",Antiplatelet drugs Yes,148/2392
same,Hazard ratio for hospitalised heart failure,Antiplatelet drugs Yes,0.88
same,"Patients with event/patients analysed, hospitalised heart failure",Atrial fibrillation No,154/3175
same,Hazard ratio for hospitalised heart failure,Atrial fibrillation No,0.86
same,"Patients with event/patients analysed, hospitalised heart failure",Atrial fibrillation Yes,55/319
same,Hazard ratio for hospitalised heart failure,Atrial fibrillation Yes,1.06
same,3-point MACE: hazard ratio vs placebo,Beta blockers No,0.87
same,3-point MACE: patients with event/patients analyzed,Beta blockers No,134/1414
same,Key secondary kidney outcome: hazard ratio vs placebo,Beta blockers No,1.14
same,Key secondary kidney outcome: patients with event/patients analyzed,Beta blockers No,161/1414
same,"Patients with event/patients analysed, hospitalised heart failure",Beta blockers No,55/1414
same,Hazard ratio for hospitalised heart failure,Beta blockers No,0.95
same,3-point MACE: hazard ratio vs placebo,Beta blockers Yes,1.11
same,3-point MACE: patients with event/patients analyzed,Beta blockers Yes,300/2080
same,Key secondary kidney outcome: hazard ratio vs placebo,Beta blockers Yes,0.97
same,Key secondary kidney outcome: patients with event/patients analyzed,Beta blockers Yes,166/2080
same,"Patients with event/patients analysed, hospitalised heart failure",Beta blockers Yes,154/2080
same,Hazard ratio for hospitalised heart failure,Beta blockers Yes,0.88
same,"Patients with event/patients analysed, hospitalised heart failure",[10],84/1750
same,Hazard ratio for hospitalised heart failure,[10],0.68
same,"Patients with event/patients analysed, hospitalised heart failure",[11],164/3017
same,Hazard ratio for hospitalised heart failure,[11],0.84
same,"Patients with event/patients analysed, hospitalised heart failure",[12],125/1744
same,Hazard ratio for hospitalised heart failure,[12],1.15
same,"Patients with event/patients analysed, hospitalised heart failure",[13],45/477
same,Hazard ratio for hospitalised heart failure,[13],1.24
same,3-point MACE: hazard ratio vs placebo,Body mass index <30 kg/m^2,0.98
same,3-point MACE: patients with event/patients analyzed,Body mass index <30 kg/m^2,191/1516
same,Key secondary kidney outcome: hazard ratio vs placebo,Body mass index <30 kg/m^2,1.14
same,Key secondary kidney outcome: patients with event/patients analyzed,Body mass index <30 kg/m^2,162/1516
same,"Patients with event/patients analysed, hospitalised heart failure",Body mass index <30 kg/m^2,78/1516
same,Hazard ratio for hospitalised heart failure,Body mass index <30 kg/m^2,0.98
